Test system: ventricular contractile force
Assay: Ventricular contractile force in anesthetized open-chest dogs (strain gauge on left ventricle), i.v. injection into left saphenous vein
Type: in vivo
Conditions: for ED (30% increase): Canis lupus familiaris, iv, male dogs, anesthetized, injected into left saphenous vein, read-out: Dose which induces about 30% increase in the ventricular contractile force; for t 1/2: period of time in decreasing the cardiac contractile force to 50% of its maximum value: male dogs 11 to 13 kg, sodium pentobarbital anesthesia, i.v., dose inducing about 30% increase in ventricular contractile force, ± S.E.
Description: Male dogs weighing about 11 to 13 kg were anesthetized with sodium pentobarbital (30 mg/kg, i.v.). Under artificial respiration, the heart was exposed by thoractomy, and a calibrated strain gauge was attached to the wall of the left ventricle for oscillographical measurement of the ventricular contractile force. The heart rate was recorded by cardiotachography, triggered by arterial pulse. A test compound was injected into the left saphenous vein at a dose which induces about 30% increase in the ventricular contractile force.
*:Period of time in decreasing the cardiac contractile force to 50% of it

Compound: COc1ccc(CCNCC(O)c2ccc(OC(=O)c3ccccc3)cc2)cc1OC (stereo not drawn) [α-(3,4-dimethoxyphenethylaminomethyl)-4-benzoyloxybenzylalcohol]
- ED (30% increase): 0.039 mg/kg
- t 1/2: period of time in decreasing the cardiac contractile force to 50% of its maximum value: 24.22 ± 0.717 min

Compound: COc1ccc(CCNCC(O)c2ccc(OC(=O)c3ccc(C)cc3)cc2)cc1OC (stereo not drawn) [α-(3,4-dimethoxyphenethylaminomethyl)-4-p-toluoyloxybenzylalcohol]
- ED (30% increase): 0.04 mg/kg
- t 1/2: period of time in decreasing the cardiac contractile force to 50% of its maximum value: 24.92 ± 0.417 min

Compound: COc1ccc(CCNCC(O)c2ccc(OC(=O)C(C)(C)C)cc2)cc1OC (stereo not drawn) [α-(3,4-dimethoxyphenethylaminomethyl)-4-pivaloyloxybenzylalcohol]
- ED (30% increase): 0.037 mg/kg
- t 1/2: period of time in decreasing the cardiac contractile force to 50% of its maximum value: 20.53 ± 1.18 min

— patent publication US4324800A, “Novel benzylalcohol derivatives and processes for preparing same” (Tanabe Seiyaku Co., Ltd., priority 1980, dated 1982)
